Source: patent US9163256B2, “Mutant receptors and their use in a nuclear receptor-based inducible gene expression system” (priority 2004, dated 2015)

What was measured:
[1] = target: CfEcR-DEF mutant V107I/Y127E/G (Choristoneura fumiferana, UniProt O77255, INS541G/V390I/Y410E); experiment: GAL4-driven luciferase reporter assay in NIH3T3 cells; format: cell-based; conditions: mutant V107I/Y127E/G
Experimental: (§1) This construct was prepared in the same way as in switch 1.1 above except wild-type CfEcR-DEF was replaced with mutant CfEcR-DEF comprising a ligand binding domain comprising a substitution mutation selected from Table 1 below.
The Gal-4-CfEcR-DEF(VYG) mutant was created by inserting an extra glycine at the C-terminal end of EcR substitution mutant V107I/Y127E [CfECR(VY)] by PCR. Essentially, this was done in two steps: PCR-amplification of CfEcR-DEF(VYG) and substitution of the CfEcR(VY) in the vector GAL4-CfEcR DEF(VY) pBIND 1-9 with the PCR-amplified CfEcR-DEF(VYG). The CfEcR-DEF region (with the extra glycine) was amplified by using the vector GAL4-CfEcR DEF(VY) pBIND 1-9 as template and the following PCR primers: […]
(§2) DNAs were transfected into mouse NIH3T3 cells (ATCC) as follows. Standard methods for culture and maintenance of the cells were followed. Cells were harvested and plated 96-well plates at 2,500 cells per well, in 50 μL of growth medium containing 10% fetal bovine serum (FBS). Twenty-four hours later, the cells were treated with 35 μL of serum-free growth medium containing either dimethylsulfoxide (DMSO; control) or a DMSO solution of ligand. The cells were then transfected using Superfect (Qiagen Inc.) transfection reagent. For each well, 0.625 μL of Superfect was mixed with 14.2 μL of serum-free growth medium. 0.16 μg of reporter construct and 0.04 μg of each receptor construct were added to the transfection reagent mix. The contents of the transfection mix were mixed in a vortex mixer and let stand at room temperature for 30 minutes. At the end of incubation, 15 μL of transfection mix was added to the cells. The cells were maintained at 37° C. and 5% CO2 for 48 hours in 5% FBS.
(§3) Reporter Assays: Cells were harvested 40 hours after adding ligands. 125 μL of passive lysis buffer (part of Dual-Luciferase reporter assay system from Promega Corporation) were added to each well of the […] plate. The plates were placed on a rotary shaker for 15 minutes. Twenty μL of lysate were assayed. Luciferase activity was measured using Dual-Luciferase reporter assay system from Promega Corporation following the manufacturer's instructions. Fold induction (FI) activities were calculated by dividing relative light units (“RLU”) in ligand treated cells with RLU in DMSO treated cells (untreated control).

CfEcR-DEF mutant F109N = CfEcR-DEF mutant F109N (Choristoneura fumiferana, UniProt O77255, F392N); experiment: cell-based; conditions: mutant F109N
CfEcR-DEF mutant F109N, sequence (P28702 299-449): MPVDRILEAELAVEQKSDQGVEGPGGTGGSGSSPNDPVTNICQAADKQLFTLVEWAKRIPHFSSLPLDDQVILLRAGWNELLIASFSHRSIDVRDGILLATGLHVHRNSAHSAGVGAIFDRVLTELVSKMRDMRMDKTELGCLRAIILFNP
CfEcR-DEF mutant F109N, sequence (O77255 entry or part of it F392N): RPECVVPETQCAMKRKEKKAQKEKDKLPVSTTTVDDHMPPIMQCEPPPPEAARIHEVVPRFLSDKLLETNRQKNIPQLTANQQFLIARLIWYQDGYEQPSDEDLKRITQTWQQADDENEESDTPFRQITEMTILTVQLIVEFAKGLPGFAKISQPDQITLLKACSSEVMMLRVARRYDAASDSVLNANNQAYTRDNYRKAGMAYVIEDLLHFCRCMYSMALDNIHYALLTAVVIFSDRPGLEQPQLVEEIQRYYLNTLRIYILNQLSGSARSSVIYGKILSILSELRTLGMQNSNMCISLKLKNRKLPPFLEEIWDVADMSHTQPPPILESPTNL
Experimental: as §1, §2, §3

CfEcR-DEF mutant R95W = CfEcR-DEF mutant R95W (Choristoneura fumiferana, UniProt O77255, R378W); experiment: cell-based; conditions: mutant R95W
CfEcR-DEF mutant R95W, sequence (O77255 entry or part of it R378W): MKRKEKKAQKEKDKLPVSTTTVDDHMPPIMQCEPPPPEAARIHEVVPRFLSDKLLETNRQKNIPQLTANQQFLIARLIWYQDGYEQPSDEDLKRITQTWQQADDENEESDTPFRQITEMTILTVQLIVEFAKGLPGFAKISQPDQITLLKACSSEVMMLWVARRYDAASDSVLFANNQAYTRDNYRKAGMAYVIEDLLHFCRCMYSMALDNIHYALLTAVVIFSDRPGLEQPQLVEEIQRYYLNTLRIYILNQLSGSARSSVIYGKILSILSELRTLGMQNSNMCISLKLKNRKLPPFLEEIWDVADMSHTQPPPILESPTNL
CfEcR-DEF mutant R95W, sequence (P28702 299-449, further chain): as the sequence (P28702 299-449) above
Experimental: as §1, §2, §3

CfEcR-DEF mutant Y120M = CfEcR-DEF mutant Y120M (Choristoneura fumiferana, UniProt O77255, Y403M); experiment: cell-based; conditions: mutant Y120M
CfEcR-DEF mutant Y120M, sequence (O77255 entry or part of it Y403M): as the sequence (O77255 entry or part of it R378W) above, with W160R, Y185M counted along it
CfEcR-DEF mutant Y120M, sequence (P28702 299-449, further chain): as the sequence (P28702 299-449) above
Experimental: as §1, §2, §3

CfEcR-DEF mutant W238E = CfEcR-DEF mutant W238E (Choristoneura fumiferana, UniProt O77255, W521E); experiment: cell-based; conditions: mutant W238E
CfEcR-DEF mutant W238E, sequence (P28702 299-449): as above
CfEcR-DEF mutant W238E, sequence (O77255 entry or part of it W521E): as the sequence (O77255 entry or part of it R378W) above, with W160R, W303E counted along it
Experimental: as §1, §2, §3

CfEcR-DEF mutant F109M = CfEcR-DEF mutant F109M (Choristoneura fumiferana, UniProt O77255, F392M); experiment: cell-based; conditions: mutant F109M
CfEcR-DEF mutant F109M, sequence (O77255 entry or part of it F392M): as the sequence (O77255 entry or part of it F392N) above, with N186M counted along it
CfEcR-DEF mutant F109M, sequence (P28702 299-449, further chain): as the sequence (P28702 299-449) above
Experimental: as §1, §2, §3

CfEcR-DEF mutant A110N = CfEcR-DEF mutant A110N (Choristoneura fumiferana, UniProt O77255, A393N); experiment: cell-based; conditions: mutant A110N
CfEcR-DEF mutant A110N, sequence (O77255 entry or part of it A393N): as the sequence (O77255 entry or part of it F392N) above, with N186F, A187N counted along it
CfEcR-DEF mutant A110N, sequence (P28702 299-449, stated change not applied, further chain): as the sequence (P28702 299-449) above
Experimental: as §1, §2, §3

CfEcR-DEF mutant V96E = CfEcR-DEF mutant V96E (Choristoneura fumiferana, UniProt O77255, V379E); experiment: cell-based; conditions: mutant V96E
CfEcR-DEF mutant V96E, sequence (O77255 entry or part of it V379E): as the sequence (O77255 entry or part of it R378W) above, with W160R, V161E counted along it
CfEcR-DEF mutant V96E, sequence (P28702 299-449, further chain): as the sequence (P28702 299-449) above
Experimental: as §1, §2, §3

CfEcR-DEF mutant V128F = CfEcR-DEF mutant V128F (Choristoneura fumiferana, UniProt O77255, V411F); experiment: cell-based; conditions: mutant V128F
CfEcR-DEF mutant V128F, sequence (P28702 299-449): as above
CfEcR-DEF mutant V128F, sequence (O77255 entry or part of it V411F): as the sequence (O77255 entry or part of it R378W) above, with W160R, V193F counted along it
Experimental: as §1, §2, §3

CfEcR-DEF mutant T52P = CfEcR-DEF mutant T52P (Choristoneura fumiferana, UniProt O77255, T335P); experiment: cell-based; conditions: mutant T52P
CfEcR-DEF mutant T52P, sequence (P28702 298-449): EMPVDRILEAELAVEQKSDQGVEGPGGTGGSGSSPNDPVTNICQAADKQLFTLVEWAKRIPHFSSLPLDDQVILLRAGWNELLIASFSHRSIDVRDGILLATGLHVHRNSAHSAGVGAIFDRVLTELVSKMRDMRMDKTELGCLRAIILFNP
CfEcR-DEF mutant T52P, sequence (O77255 entry or part of it T335P): as the sequence (O77255 entry or part of it F392N) above, with T129P, N186F counted along it
Experimental: as §1, §2, §3

CfEcR-DEF mutant F48W = CfEcR-DEF mutant F48W (Choristoneura fumiferana, UniProt O77255, F331W); experiment: cell-based; conditions: mutant F48W
CfEcR-DEF mutant F48W, sequence (P28702 299-449): as the sequence (P28702 299-449) above
CfEcR-DEF mutant F48W, sequence (O77255 entry or part of it F331W): as the sequence (O77255 entry or part of it F392N) above, with F125W, N186F counted along it
Experimental: as §1, §2, §3

CfEcR-DEF mutant F48Y = CfEcR-DEF mutant F48Y (Choristoneura fumiferana, UniProt O77255, F331Y); experiment: cell-based; conditions: mutant F48Y
CfEcR-DEF mutant F48Y, sequence (O77255 entry or part of it F331Y): as the sequence (O77255 entry or part of it F392N) above, with F125Y, N186F counted along it
CfEcR-DEF mutant F48Y, sequence (P28702 299-449, further chain): as the sequence (P28702 299-449) above
Experimental: as §1, §2, §3

CfEcR-DEF mutant L132M = CfEcR-DEF mutant L132M (Choristoneura fumiferana, UniProt O77255, L415M); experiment: cell-based; format: cell-based; conditions: mutant L132M
CfEcR-DEF mutant L132M, sequence (O77255 entry or part of it L415M): as the sequence (O77255 entry or part of it F392N) above, with N186F, L209M counted along it
CfEcR-DEF mutant L132M, sequence (P28702 298-449, further chain): as the sequence (P28702 298-449) above
Experimental: as §1, §2, §3

CfEcR-DEF mutant F48N = CfEcR-DEF mutant F48N (Choristoneura fumiferana, UniProt O77255, F331N); experiment: GAL4-driven luciferase reporter assay in NIH3T3 cells; format: cell-based; conditions: mutant F48N
CfEcR-DEF mutant F48N, sequence (O77255 entry or part of it F331N): as the sequence (O77255 entry or part of it F392N) above, with F125N, N186F counted along it
CfEcR-DEF mutant F48N, sequence (P28702 299-449, further chain): as the sequence (P28702 299-449) above
Experimental: as §1, §2, §3

CfEcR-DEF mutant M125W = CfEcR-DEF mutant M125W (Choristoneura fumiferana, UniProt O77255, M408W); experiment: as above; format: cell-based; conditions: mutant M125W
CfEcR-DEF mutant M125W, sequence (O77255 entry or part of it M408W): as the sequence (O77255 entry or part of it F392N) above, with N186F, M202W counted along it
CfEcR-DEF mutant M125W, sequence (P28702 299-449, further chain): as the sequence (P28702 299-449) above
Experimental: as §1, §2, §3

[2] = target: CfEcR-DEF mutant T52V/A110P (Choristoneura fumiferana, UniProt O77255, A393P/T335V); experiment: as above; format: cell-based; conditions: mutant T52V/A110P
CfEcR-DEF mutant T52V/A110P, sequence (O77255 entry or part of it T335V/A393P): as the sequence (O77255 entry or part of it R378W) above, with T117V, W160R, A175P counted along it
CfEcR-DEF mutant T52V/A110P, sequence (P28702 299-449, stated change not applied, further chain): as the sequence (P28702 299-449) above
Experimental: as §1, §2, §3

[3] = target: CfEcR-DEF mutant V107I/Y127E/T52V (Choristoneura fumiferana, UniProt O77255, T335V/V390I/Y410E); experiment: as above; format: cell-based; conditions: mutant V107I/Y127E/T52V
CfEcR-DEF mutant V107I/Y127E/T52V, sequence (P28702 299-449): as above
CfEcR-DEF mutant V107I/Y127E/T52V, sequence (O77255 entry or part of it T335V/V390I/Y410E): as the sequence (O77255 entry or part of it R378W) above, with T117V, W160R, V172I, Y192E counted along it
Experimental: as §1, §2, §3

[4] = relative to max fold induction of GS-E ligand

CfEcR-DEF mutant V107I/Y127E/G, sequence (P28702 299-449, stated change not applied): as the sequence (P28702 299-449) above
CfEcR-DEF mutant V107I/Y127E/G, sequence (O77255 entry or part of it V390I/Y410E/INS541G): as the sequence (O77255 entry or part of it R378W) above, with W160R counted along it

Structure (SMILES): CC(C)(O)CC[C@@H](O)[C@](C)(O)[C@H]1CC[C@@]2(O)C3=CC(=O)[C@@H]4C[C@@H](O)[C@@H](O)C[C@]4(C)[C@H]3CC[C@]12C [20E, 20-hydroxyecdysone]
- EC50 ([1]; read-out: EC50): > 33 µM
- Rel Max FI [1, 4]: 0.03
- Rel Max FI (CfEcR-DEF mutant F109N): 0
- EC50 (CfEcR-DEF mutant F109N; read-out: EC50): > 33 µM
- Rel Max FI (CfEcR-DEF mutant R95W): 0
- EC50 (CfEcR-DEF mutant R95W; read-out: EC50): > 33 µM
- Rel Max FI (CfEcR-DEF mutant Y120M): 0
- EC50 (CfEcR-DEF mutant Y120M; read-out: EC50): > 33 µM
- Rel Max FI (CfEcR-DEF mutant W238E): 0
- EC50 (CfEcR-DEF mutant W238E; read-out: EC50): > 33 µM
- EC50 (CfEcR-DEF mutant F109M; read-out: EC50): > 33 µM
- Rel Max FI (CfEcR-DEF mutant F109M; [4]): 0
- EC50 (CfEcR-DEF mutant A110N; read-out: EC50): > 33 µM
- Rel Max FI (CfEcR-DEF mutant A110N; [4]): 0
- Rel Max FI (CfEcR-DEF mutant V96E): 0
- EC50 (CfEcR-DEF mutant V96E; read-out: EC50): > 33 µM
- Rel Max FI (CfEcR-DEF mutant V128F): 0.02
- EC50 (CfEcR-DEF mutant V128F; read-out: EC50): ~10 µM
- Rel Max FI (CfEcR-DEF mutant T52P): 0.02
- EC50 (CfEcR-DEF mutant T52P; read-out: EC50): > 33 µM
- EC50 (CfEcR-DEF mutant F48W; read-out: EC50): > 33 µM
- Rel Max FI (CfEcR-DEF mutant F48W; [4]): 0
- EC50 (CfEcR-DEF mutant F48Y; read-out: EC50): > 33 µM
- Rel Max FI (CfEcR-DEF mutant F48Y; [4]): 0
- EC50 (CfEcR-DEF mutant L132M): > 33 µM
- Rel Max FI (CfEcR-DEF mutant L132M): 0.01
- Rel Max FI (CfEcR-DEF mutant L132M; [4]): 0
- Rel Max FI (CfEcR-DEF mutant F48N): 0
- EC50 (CfEcR-DEF mutant F48N; read-out: EC50): > 33 µM
- Rel Max FI (CfEcR-DEF mutant M125W): 0
- EC50 (CfEcR-DEF mutant M125W; read-out: EC50): > 33 µM
- EC50 ([2]; read-out: EC50): > 33 µM
- Rel Max FI [2, 4]: 0
- EC50 ([3]; read-out: EC50): > 33 µM
- Rel Max FI [3, 4]: 0.04
